Data from PMC11237012, “Synthesis and preliminary evaluation of novel PET probes for GSK-3 imaging” (Scientific Reports, 2024).

Experiment: In vivo PET imaging, uptake in brain and liver
Set-up: species or system wild-type FVB/NJ mice
Description: To evaluate the imaging potential and brain uptake of PET probe [^18F]2, we selected FVB/NJ wild-type mice and performed radiotracer uptake studies via tail vein injection of [^18F]2 followed by dynamic imaging upto 60 min and static imaging at 120 min post-injection. Ex-vivo biodistribution was performed immediately after 120 min static imaging. Uptake of [^18F]2 was assessed in the brain and liver of wild-type FVB/NJ mice by PET imaging at different time points post-injection with and without co-administration of 2 (reference compound as a self-blocking agent). Representative transverse sectional PET images of the brain at different time points are shown in Fig. 6 and representative coronal and sagittal sectional PET images of the liver and whole-body PET images are shown in SI-Figs. S17 and S18, respectively. It was encouraging to observe brain uptake of PET probe [^18F]2 with a standard uptake value (SUV) of 0.92 ± 0.28 (n = 6) at 5 min post-injection. Approximately 80% of PET probe [^18F]2 was cleared from the wild-type mice brain in the first 30 min. The uptake of [^18F]2 in the brain was lower than in the liver at all time points post-injection. […] The contrasting response in uptake of [^18F]2 in the brain in the presence of 2 could be attributed to the peripheral effect. […] This is also evident from the higher concentration of 2 in the blood of the animals in which [^18F]2 was co-administered with 2 as compared to administration of only [^18F]2 (Figs. 6, 7 and 8 and SI-Table S2, SI-Figs. S17, S18). A similar observation was also reported by Lindberg et al. 2021 with [^11C]verubulin in rats, where co-injection of verubulin increased the uptake of [^11C]verubulin in the brain and was attributed to the saturation of the enzymes (e.g. cytochrome P450 enzymes) that metabolize the tracer in the liver, leading to increased bioavailability. It is also plausible that the isonicotinamide class of compounds are substrate for cytochrome P450 enzymes.
Uptake of PET probe [^18F]2 (1.40 ± 0.61 MBq) was assessed with and without co-administration of 2 in 10–13-week-old wild-type FVB/NJ mice (The Jackson Laboratory, Bar Harbor, ME) after tail vein injection followed by PET imaging at 5 min, 10 min, 15 min, 20 min, 25 min, 30 min, 40 min, 50 min, 60 min and 120 min post injection. Additionally, ex vivo biodistribution was performed at 5 min, 10 min and 120 min post tail vein injection. To prepare [^18F]2 formulation for injection, 0.76 ± 0.48 µg (2.01 ± 1.27 nmol) of [^18F]2 was formulated in 10% ethanol/ 90% isotonic saline. For the blocking experiment, 20.21 ± 1.63 µg (53.75 ± 4.33 nmol) of 2 in DMSO was added to [^18F]2 (Am of 87.27 ± 77.26 (n = 13) GBq/µmole, having 0.46 ± 0.31 µg or 1.23 ± 0.83 nmol of nonradioactive 2 in it) in the final formulation volume of ~ 100 µL. This study had 12 wild type FVB/NJ male mice with body weight 31.8 ± 2.7 g and 10 wild type FVB/NJ female mice with body weight 27.0 ± 3.6 g at the time of imaging. All the animals were anesthetized for tail vein injection and PET imaging using an induction dose of 3% isoflurane and a maintenance dose of 2–3% isoflurane, which was administered via isoflurane vaporizer. All anesthetized animals were kept warm during imaging using a heat supported imaging chamber. For ex vivo biodistribution studies, animals were sacrificed at 5 min, 10 min and 120 min post-injection by cervical dislocation and tissues were harvested for gamma counting. For PET imaging studies, each animal underwent a 60 min dynamic PET scan (Framing Sequence: 1 × 10 s, 4 × 15 s, 8 × 30 s, 5 × 60 s, 4 × 300 s, 3 × 600 s) immediately post injection followed by 10 min static PET scan at 120 min post-injection on small animal micro-PET/X-ray system, Genesys 4 (Sofie BioSystems, Dulles, VA, USA). The PET images were reconstructed using Genesys 4 imaging software installed on the imaging system. […]

SMILES: O=C(Nc1cnccc1-c1ccc([18F])cc1)c1ccnc(NC(=O)C2CC2)c1 [[^18F]2]
- Uptake (SUV) by PET image analysis (brain, 5 min post-injection, [^18F]2 + 20 µg of 2): 0.93 ± 0.06
- Uptake (SUV) by PET image analysis (brain, 5 min post-injection, [^18F]2 alone): 0.92 ± 0.28
- Change of brain uptake on co-administration of compound 2 (brain, 5 min time point): no difference in uptake
- Uptake (SUV) by PET image analysis (brain, 10 min post-injection, [^18F]2 + 20 µg of 2): 0.57 ± 1.06
- Uptake (SUV) by PET image analysis (brain, 10 min post-injection, [^18F]2 alone): 0.38 ± 0.06
- Change of brain uptake on co-administration of compound 2 (brain, 10 min time point): 1.5 fold
- Change of brain uptake on co-administration of compound 2 (brain, 15 min, 20 min, 25 min and 30 min time points): twofold
- Uptake (SUV) by PET image analysis (brain, 15 min post-injection, [^18F]2 + 20 µg of 2): 0.50 ± 0.06
- Uptake (SUV) by PET image analysis (brain, 15 min post-injection, [^18F]2 alone): 0.24 ± 0.03
- Uptake (SUV) by PET image analysis (brain, 20 min post-injection, [^18F]2 + 20 µg of 2): 0.43 ± 0.06
- Uptake (SUV) by PET image analysis (brain, 20 min post-injection, [^18F]2 alone): 0.21 ± 0.02
- Uptake (SUV) by PET image analysis (brain, 25 min post-injection, [^18F]2 + 20 µg of 2): 0.40 ± 0.06
- Uptake (SUV) by PET image analysis (brain, 25 min post-injection, [^18F]2 alone): 0.19 ± 0.03
- Uptake (SUV) by PET image analysis (brain, 30 min post-injection, [^18F]2 + 20 µg of 2): 0.36 ± 0.06
- Uptake (SUV) by PET image analysis (brain, 30 min post-injection, [^18F]2 alone): 0.19 ± 0.04
- Uptake (SUV) by PET image analysis (brain, 40 min post-injection, [^18F]2 + 20 µg of 2): 0.31 ± 0.06
- Uptake (SUV) by PET image analysis (brain, 40 min post-injection, [^18F]2 alone): 0.18 ± 0.04
- Uptake (SUV) by PET image analysis (brain, 50 min post-injection, [^18F]2 + 20 µg of 2): 0.28 ± 0.06
- Uptake (SUV) by PET image analysis (brain, 50 min post-injection, [^18F]2 alone): 0.17 ± 0.03
- Uptake (SUV) by PET image analysis (brain, 60 min post-injection, [^18F]2 + 20 µg of 2): 0.26 ± 0.06
- Uptake (SUV) by PET image analysis (brain, 60 min post-injection, [^18F]2 alone): 0.16 ± 0.03
- Uptake (SUV) by PET image analysis (brain, 120 min post-injection, [^18F]2 + 20 µg of 2): 0.18 ± 0.01
- Uptake (SUV) by PET image analysis (brain, 120 min post-injection, [^18F]2 alone): 0.09 ± 0.01
- Uptake (SUV) by PET image analysis (liver, 5 min post-injection, [^18F]2 + 20 µg of 2): 5.24 ± 1.46
- Uptake (SUV) by PET image analysis (liver, 5 min post-injection, [^18F]2 alone): 5.66 ± 1.18
- Uptake (SUV) by PET image analysis (liver, 10 min post-injection, [^18F]2 + 20 µg of 2): 5.86 ± 0.51
- Uptake (SUV) by PET image analysis (liver, 10 min post-injection, [^18F]2 alone): 7.43 ± 0.66
- Uptake (SUV) by PET image analysis (liver, 15 min post-injection, [^18F]2 + 20 µg of 2): 5.49 ± 0.28
- Uptake (SUV) by PET image analysis (liver, 15 min post-injection, [^18F]2 alone): 7.89 ± 0.59
- Uptake (SUV) by PET image analysis (liver, 20 min post-injection, [^18F]2 + 20 µg of 2): 5.19 ± 0.27
- Uptake (SUV) by PET image analysis (liver, 20 min post-injection, [^18F]2 alone): 7.88 ± 0.60
- Uptake (SUV) by PET image analysis (liver, 25 min post-injection, [^18F]2 + 20 µg of 2): 4.93 ± 0.30
- Uptake (SUV) by PET image analysis (liver, 25 min post-injection, [^18F]2 alone): 7.61 ± 0.65
- Uptake (SUV) by PET image analysis (liver, 30 min post-injection, [^18F]2 + 20 µg of 2): 4.76 ± 0.33
- Uptake (SUV) by PET image analysis (liver, 30 min post-injection, [^18F]2 alone): 7.34 ± 0.77
- Uptake (SUV) by PET image analysis (liver, 40 min post-injection, [^18F]2 + 20 µg of 2): 4.55 ± 0.23
- Uptake (SUV) by PET image analysis (liver, 40 min post-injection, [^18F]2 alone): 6.91 ± 0.91
- Uptake (SUV) by PET image analysis (liver, 50 min post-injection, [^18F]2 + 20 µg of 2): 4.31 ± 1.15
- Uptake (SUV) by PET image analysis (liver, 50 min post-injection, [^18F]2 alone): 6.40 ± 1.04
- Uptake (SUV) by PET image analysis (liver, 60 min post-injection, [^18F]2 + 20 µg of 2): 4.09 ± 1.16
- Uptake (SUV) by PET image analysis (liver, 60 min post-injection, [^18F]2 alone): 5.95 ± 1.12
- Uptake (SUV) by PET image analysis (liver, 120 min post-injection, [^18F]2 + 20 µg of 2): 3.19 ± 0.37
- Uptake (SUV) by PET image analysis (liver, 120 min post-injection, [^18F]2 alone): 2.78 ± 1.40
- Fraction of probe cleared from the brain (wild-type mice brain, in the first 30 min): Approximately 80%
